Experimental data: patent US7795381B2, “Methods and materials for cancer treatment” (Mayo Foundation for Medical Education and Research, priority 2001, dated 2010)
Entries after “also recorded” stand apart in the source; their conditions may differ. No end group written: not given here.

Columns and labels:
Assay type in all cases: cell-based, human
CD4+ T cells (HTL lines) [1] = experiment: T-cell proliferative response to polypeptide, dose curve ([3H]-thymidine); details: for polypeptide concentration required to obtain 50% of the maximal proliferation: HLA-DR7-restricted HTL lines, polypeptide presented by autologous PBMC
Procedure: Polypeptides gp10074-89, gp100175-189 and gp100576-590 were tested for their capacity to stimulate CD4^+ T cells obtained from four healthy, MHC-typed individuals in primary in vitro cultures using polypeptide-pulsed autologous dendritic cells (DC). The method used to generate tumor antigen-reactive HTL lines and clones using polypeptide-stimulated peripheral blood mononuclear cells (PBMC) was recently described in detail (Kobayashi H et al., Cancer Res 60:5228 (2000)). Briefly, DC were generated in tissue culture from adherent monocytes that were cultured for 7 days in the presence of GM-CSF and IL-4. A total of (1×10^4) polypeptide-pulsed DC (10 μg/ml for 2 hr) were irradiated (4,200 rad) and co-cultured with 3×10^4 autologous purified CD4^+ T cells (using magnetic microbeads from Miltenyi Biotech) in each well of a 96-round bottom well culture plate. Seven days later, the cultures were restimulated with polypeptide-pulsed irradiated autologous PBMC and two days later, human rIL-2 was added at a final concentration of 10 IU/ml. After 7 days, the microcultures were tested for their proliferative responses to polypeptide as described below. Those micro-wells showing a proliferative response to polypeptide (at least 2.5 fold over background) were expanded in 24 or 48-well plates by weekly restimulation with polypeptides and irradiated autologous PBMC. In some instances T-cell lines were cloned by limiting dilution and used for further studies. […]
T cells (3×10^4/well) were mixed with irradiated APC in the presence of various concentrations of antigen (polypeptides, tumors or tumor lysates), in 96-well culture plates. […] The radioactivity incorporated into DNA, which correlates with cell proliferation, was measured in a liquid scintillation counter after harvesting the cell cultures onto glass fiber filters. […] The stimulation index (SI) was calculated by dividing the mean radioactivity (cpm) obtained in the presence of antigen by the mean radioactivity (cpm) obtained in the absence of antigen but in the presence of APC.

CD4+ T cells (HTL lines) [2] = experiment: MHC restriction analysis of HTL proliferative response (anti-HLA-DR/-DQ blocking, HLA-transfected L-cells, LCL); details: for ability to trigger HTL restricted by other alleles such as HLA-DR1 or -DR4: 2 experiments with cells from 2 donors; for MHC restriction of the induced CD4+ T-cell (HTL) proliferative response: anti-DR/anti-DQ antibody blocking, HLA-transfected L-cells, allogeneic LCL
Procedure: Polypeptides gp10074-89, gp100175-189 and gp100576-590 were tested for their capacity to stimulate CD4^+ T cells obtained from four healthy, MHC-typed individuals in primary in vitro cultures using polypeptide-pulsed autologous dendritic cells (DC). The method used to generate tumor antigen-reactive HTL lines and clones using polypeptide-stimulated peripheral blood mononuclear cells (PBMC) was recently described in detail (Kobayashi H et al., Cancer Res 60:5228 (2000)). Briefly, DC were generated in tissue culture from adherent monocytes that were cultured for 7 days in the presence of GM-CSF and IL-4. A total of (1×10^4) polypeptide-pulsed DC (10 μg/ml for 2 hr) were irradiated (4,200 rad) and co-cultured with 3×10^4 autologous purified CD4^+ T cells (using magnetic microbeads from Miltenyi Biotech) in each well of a 96-round bottom well culture plate. Seven days later, the cultures were restimulated with polypeptide-pulsed irradiated autologous PBMC and two days later, human rIL-2 was added at a final concentration of 10 IU/ml. After 7 days, the microcultures were tested for their proliferative responses to polypeptide as described below. Those micro-wells showing a proliferative response to polypeptide (at least 2.5 fold over background) were expanded in 24 or 48-well plates by weekly restimulation with polypeptides and irradiated autologous PBMC. In some instances T-cell lines were cloned by limiting dilution and used for further studies. Culture medium for all procedures consisted of RPMI-1640 supplemented with 5% human male AB serum, 0.1 mM MEM nonessential amino acids, 1 mM sodium pyruvate, 2 mM L-glutamine, and 50 μg/ml gentamicin.
T cells (3×10^4/well) were mixed with irradiated APC in the presence of various concentrations of antigen (polypeptides, tumors or tumor lysates), in 96-well culture plates. APC consisted of either PBMC (1×10^5/well), HLA-DR-expressing L-cells (3×10^4/well), EBV-LCL or melanoma tumor cells (3×10^4/well), pretreated with IFN-γ (500 U/ml for 48 h) to enhance MHC expression. Proliferation assays were incubated at 37° C. in a 5% CO2 incubator for 72 h and during the last 16 h, each well was pulsed with 0.5 μCi/well of [^3H]-thymidine (Amersham Pharmacia Biotech, Piscataway, N.J.). […] The radioactivity incorporated into DNA, which correlates with cell proliferation, was measured in a liquid scintillation counter after harvesting the cell cultures onto glass fiber filters. […] The stimulation index (SI) was calculated by dividing the mean radioactivity (cpm) obtained in the presence of antigen by the mean radioactivity (cpm) obtained in the absence of antigen but in the presence of APC.

[3] = system: melanoma tumor cells or tumor lysates presented by APC; experiment: Recognition of naturally processed antigen by polypeptide-reactive HTL (proliferation, GM-CSF/IFN-γ ELISA); details: for HTL recognition of melanoma tumor cell lysates presented by autologous APC / HTL recognition of antigen presented directly by intact melanoma cells: HLA-DR7-restricted HTL lines; for HTL recognition of melanoma tumor cell lysates presented by autologous APC: 697 mel lysate; for HTL recognition of antigen presented directly by intact melanoma cells: HLA-DR7+ melanoma (HT-144); for recognition of naturally processed antigen by HTL reactive to the polypeptide: MHC class II positive melanomas or APC fed with tumor lysates
Excerpt: Recognition of naturally processed antigen by polypeptide-reactive T-cells can be an important parameter to determine whether a predicted T-cell epitope can be used to elicit an immune response against tumor cells. HTL may recognize polypeptide/MHC class II complexes directly on tumor cells that are MHC class II positive and as a consequence the T-cells will become activated and produce cytokines that provide help to CTL or cytokines that may inhibit tumor cell growth.
T cells (3×10^4/well) were mixed with irradiated APC in the presence of various concentrations of antigen (polypeptides, tumors or tumor lysates), in 96-well culture plates. APC consisted of either PBMC (1×10^5/well), HLA-DR-expressing L-cells (3×10^4/well), EBV-LCL or melanoma tumor cells (3×10^4/well), pretreated with IFN-γ (500 U/ml for 48 h) to enhance MHC expression. Proliferation assays were incubated at 37° C. in a 5% CO2 incubator for 72 h and during the last 16 h, each well was pulsed with 0.5 μCi/well of [^3H]-thymidine (Amersham Pharmacia Biotech, Piscataway, N.J.). In some cases, culture supernatants were collected before the addition of [^3H]-thymidine for the determination of lymphokine production using ELISA kits (Pharmingen, San Diego, Calif.). The radioactivity incorporated into DNA, which correlates with cell proliferation, was measured in a liquid scintillation counter after harvesting the cell cultures onto glass fiber filters. […] The stimulation index (SI) was calculated by dividing the mean radioactivity (cpm) obtained in the presence of antigen by the mean radioactivity (cpm) obtained in the absence of antigen but in the presence of APC.

melanoma cells = experiment: Antigen-specific cytotoxicity, JAM assay; details: HLA-DQw6-restricted HTL; DQw6 positive melanoma cell line (1102 mel)
Procedure: The capacity of HTL lines and clones to kill tumor cells expressing the appropriate polypeptide/MHC complexes was evaluated using the JAM assay (Matzinger P, J Immunol Methods 145:185 (1991)), which measures the DNA retained by target living cells after incubation with effector T-cells. Briefly, target cells were labeled with of [^3H]-thymidine for 18 hrs in tissue culture. After washing and counting the cells, they were incubated at various effectors to target ratio in 96-well round-bottomed plates for 36 hours. The cultures were then harvested onto glass fiber filters, and the amount of radioactivity retained in DNA is measured in a scintillation counter. The percent cytotoxicity was calculated by the ratio of cpm obtained in the absence of T-cells over the cpm obtained in the presence of different amounts of T-cells X 100. All determinations were done in triplicates.

[4] = system: PBMC from normal individuals; experiment: In vitro immunization of PBMC using polypeptide-pulsed DC (CTL induction)
Excerpt: See, Manici et al., J Exp Med 189:871 (1999); Fujita et al., Eur J Immunol 28:305 (1998); Zarour et al., Cancer Res 60:4946 (2000); Touloukian et al., J Immunol 164:3535 (2000); Zarour et al., Proc Natl Acad Sci USA 97:400 (2000); Yasukawa et al., Blood 92:3355 (1998).

| Substance | polypeptide concentration required to obtain 50% of the maximal proliferation (CD4+ T cells (HTL lines) [1]) [µg/mL] | affinity of T-cell response, higher than the response to polypeptide gp10074-89 (CD4+ T cells (HTL lines) [1]; by amount of polypeptide required to achieve 50% of maximal proliferative response) [fold] | ability to trigger HTL restricted by other alleles such as HLA-DR1 or -DR4 (CD4+ T cells (HTL lines) [2]) | MHC restriction of the induced CD4+ T-cell (HTL) proliferative response (CD4+ T cells (HTL lines) [2]) | HTL recognition of melanoma tumor cell lysates presented by autologous APC [3] | HTL recognition of antigen presented directly by intact melanoma cells [3] | recognition of naturally processed antigen by HTL reactive to the polypeptide [3] | cytotoxicity of polypeptide-reactive HTL (melanoma cells) | induction of anti-tumor CTL responses [4] |
| --- | --- | --- | --- | --- | --- | --- | --- | --- | --- |
| SLAVVSTQLIMPGQE [gp100576-590] | ~0.04 | ~15 | not able to trigger | restricted by the HLA-DR7 allele | could not be detected | could not be detected | did not proliferate or produce lymphokines | – | – |
| GRAMLGTHTMEVTVY [gp100175-189, GRAMLGTHTMEVTVY] | – | – | – | – | – | – | – | high levels of cytotoxicity | – |
| GPTLIGANASFSIALN [gp10074-89] | ~0.6 | – | not able to trigger | restricted by the HLA-DR7 allele | efficient at recognizing tumor cell lysates | effective in recognizing antigen | can recognize naturally processed antigen; also recorded: capable of recognizing naturally processed antigen | – | – |
| gp100177-186: potent HLA-A2-restricted CTL epitope included in polypeptide gp100175-189 (AMLGTHTMEV; UniProt P40967 177-186, looked up, fragment) | – | – | – | – | – | – | – | – | very effective in inducing anti-tumor CTL responses |
